The subject of one series is HEp-2 cells. The series can be described thus: Cytotoxicity (MTT) assay. Format: cell-based. The conditions noted are these: Table 2; uninfected HEp-2 cells, 4 days incubation, 50% toxicity dose. The protocol:
A cytopathetic effect (CPE) protection assay was performed to determine the ability of a compound to protect the cells from viral infection and thus the CPE induced by viral infection. 96-well plates were first seeded with 3×10^3 HEp-2 cells per well in Dulbecco's modified Eagle's medium (DMEM) containing 10% fetal bovine serum (FBS). One day after the cells were seeded, they were preincubated with serial dilutions of compounds prepared in 100 μL assay medium (DMEM mixed with F12 medium at a 1:1 ratio, supplemented with 2% FBS and 1 mM sodium pyruvate) for 1 hour at 37° C. 100 μL of assay medium containing 0.2 multiplicity of infection (MOI) of RSV was then added to each well of cells. In addition to wells containing infected cells incubated with compounds, each plate also contained replicates of two kinds of controls: (1) Virus control contained cells infected with 0.2 MOI of RSV in assay medium, (2) Uninfected cell control contained cells incubated with assay medium only. After 4 days of incubation at 37° C., the viability of cells was assessed using MTT (Thiazolyl blue tetrazolium bromide, Sigma). A stock solution of MTT, at a concentration of 4 mg/mL in phosphate-buffered saline, was added to all wells at 25 μL per well. Plates were further incubated for 4 hours, and each well was then treated with 50 μL of a solution containing 20% sodium dodecyl sulfate (SDS) and 0.02 N HCl. After an overnight incubation, the plates were measured on a BioTek® microtiter plate reader at wavelengths of 570 nm and 650 nm. The MTT detection is based on the fact that viable (uninfected) cells can reduce the tetrazolium salts into colored formazan products, which can then be quantitated by spectrometry. Based on the spectrometric absorbance of each sample, the percent of protection from CPE, which is an indicator of protection from viral infection, can be calculated for each compound and the 50% effective concentrations (EC50) can be calculated using a nonlinear regression curve fitting equation provided by the GraphPad Prism® 4 software.
Cytotoxicity of the compounds was determined in experiments done in parallel with the antiviral assays. To do this, 100 μL of assay medium was added to the wells of HEp-2 cells pretreated with 100 μL serially diluted compounds as described above. After 4 days of incubation, the viability of the cells was determined by the MTT assay in the same way as detailed in the “Antiviral Assay” method. Results were expressed as 50% toxicity dose (TD50) values.
Compounds were tested to determine both their antiviral and toxicity to determine their therapeutic window. Determination of the EC50 and TD50 of these active compounds were repeated one additional time to confirm the window.

Series [1] relates to RSV (Group A, Long Strain). The series is described as follows: Antiviral (RSV) assay: cytopathetic effect (CPE) protection assay in HEp-2 cells, MTT readout. Type of series: cell-based, human respiratory syncytial virus (RSV). The conditions noted are these: human respiratory syncytial virus, HEp-2, 96 h. The protocol: HEp-2 cells and RSV (Group A, Long Strain) were obtained from the American Type Culture Collection (Manassas, Va.). A cytopathetic effect (CPE) protection assay was performed to determine the ability of a compound to protect the cells from viral infection and thus the CPE induced by viral infection. 96-well plates were first seeded with 3×10^3 HEp-2 cells per well in Dulbecco's modified Eagle's medium (DMEM) containing 10% fetal bovine serum (FBS). One day after the cells were seeded, they were preincubated with serial dilutions of compounds prepared in 100 μL assay medium (DMEM mixed with F12 medium at a 1:1 ratio, supplemented with 2% FBS and 1 mM sodium pyruvate) for 1 hour at 37° C. 100 μL of assay medium containing 0.2 multiplicity of infection (MOI) of RSV was then added to each well of cells. In addition to wells containing infected cells incubated with compounds, each plate also contained replicates of two kinds of controls: (1) Virus control contained cells infected with 0.2 MOI of RSV in assay medium, (2) Uninfected cell control contained cells incubated with assay medium only. After 4 days of incubation at 37° C., the viability of cells was assessed using MTT (Thiazolyl blue tetrazolium bromide, Sigma). A stock solution of MTT, at a concentration of 4 mg/mL in phosphate-buffered saline, was added to all wells at 25 μL per well. Plates were further incubated for 4 hours, and each well was then treated with 50 μL of a solution containing 20% sodium dodecyl sulfate (SDS) and 0.02 N HCl. After an overnight incubation, the plates were measured on a BioTek® microtiter plate reader at wavelengths of 570 nm and 650 nm. The MTT detection is based on the fact that viable (uninfected) cells can reduce the tetrazolium salts into colored formazan products, which can then be quantitated by spectrometry. […] Compounds were tested to determine both their antiviral and toxicity to determine their therapeutic window. Determination of the EC50 and TD50 of these active compounds were repeated one additional time to confirm the window.

Setting [2] is: Table 1, 0.2 MOI RSV, 4 days incubation, protection from CPE.

Data on 28 compounds can be found in patent US9447051B2, “Diaminopyrimidines and uses thereof” (AbbVie inc., priority 2012, dated 2016).

A word on the EC50: it is the midpoint of the concentration-response curve. Read a high EC50 as a need for much substance.

Turning to `Cc1nc(NCc2ccccn2)nc(NC2CCCCC2)c1C` [Example 1, N^4-cyclohexyl-5,6-dimethyl-N^2-(pyridin-2-ylmethyl)pyrimidine-2,4-diamine], the “MTT TD50” value with HEp-2 cells is 23.00 µM. Besides, the EC50 was found to be 250 nM in series [1] (setting [2]) and 150 nM in series [1] (Table 2, 0.2 MOI RSV, 4 days, determination repeated to confirm window).

As to `Cc1ccc(F)cc1Nc1nc(NCc2ccccn2)nc(C)c1C` [Example 71, N^4-(5-fluoro-2-methylphenyl)-5,6-dimethyl-N^2-(pyridin-2-ylmethyl)pyrimidine-2,4-diamine], a half-maximal response in series [1] (setting [2]) (EC50) required 40 nM.

The compound `Cc1cccc(F)c1Nc1nc(NCc2ccccn2)nc(C)c1C` [Example 72, N^4-(2-fluoro-6-methylphenyl)-5,6-dimethyl-N^2-(pyridin-2-ylmethyl)pyrimidine-2,4-diamine] gave an EC50 in series [1] (setting [2]) of 78 nM.

`Cc1cc(F)c(F)cc1Nc1nc(NCc2ccccn2)nc(C)c1C` [Example 73, N^4-(4,5-difluoro-2-methylphenyl)-5,6-dimethyl-N^2-(pyridin-2-ylmethyl)pyrimidine-2,4-diamine] yielded an EC50 in series [1] (setting [2]) of 24 nM.

As to `Cc1nc(NCc2ccccn2)nc(Nc2ccnn2C)c1C` [Example 74, 5,6-dimethyl-N^4-(1-methyl-1H-pyrazol-5-yl)-N^2-(pyridin-2-ylmethyl)pyrimidine-2,4-diamine], in series [1] (setting [2]), the EC50 came to 650 nM.

As for `Cc1cc(F)ccc1Nc1nc(NCc2ccccn2)nc(C)c1C` [Example 75, N^4-(4-fluoro-2-methylphenyl)-5,6-dimethyl-N^2-(pyridin-2-ylmethyl)pyrimidine-2,4-diamine], the EC50 in series [1] (setting [2]) stood at 26 nM.

Take `Cc1nc(NCc2ccccn2)nc(Nc2cccc(F)c2C)c1C` [Example 76, N^4-(3-fluoro-2-methylphenyl)-5,6-dimethyl-N^2-(pyridin-2-ylmethyl)pyrimidine-2,4-diamine]: in series [1] (setting [2]), a half-maximal response (EC50) required 25 nM.

Regarding `Cc1nc(NCc2ccccn2)nc(N(C)C2CCCCC2)c1C` [Example 77, N^4-cyclohexyl-N^4,5,6-trimethyl-N^2-(pyridin-2-ylmethyl)pyrimidine-2,4-diamine], the EC50 in series [1] (setting [2]) was 1200 nM.

Consider `Cc1nc(NCc2ccccn2)nc(NC2CCC(F)(F)C2)c1C` (stereo not drawn) [Example 78, N^4-(3,3-difluorocyclopentyl)-5,6-dimethyl-N^2-(pyridin-2-ylmethyl)pyrimidine-2,4-diamine], for which the midpoint of the response in series [1] (setting [2]), the EC50, lay at 190 nM.

Take `Cc1nc(NCc2ccccn2)nc(N[C@H]2CC[C@H](O)CC2)c1C` [Example 79, trans-4-({5,6-dimethyl-2-[(pyridin-2-ylmethyl)amino]pyrimidin-4-yl}amino)cyclohexanol]: a half-maximal response in series [1] (setting [2]) (EC50) required 620 nM.

For `Cc1nc(NCc2ccccn2)nc(NC2CCCC(F)(F)C2)c1C` (stereo not drawn) [Example 80, N^4-(3,3-difluorocyclohexyl)-5,6-dimethyl-N^2-(pyridin-2-ylmethyl)pyrimidine-2,4-diamine], in series [1] (setting [2]), it took 190 nM to reach a half-maximal effect (EC50).

On to `Cc1nc(NCc2ccccn2)nc(NC2CCN(C)CC2)c1C` [Example 81, 5,6-dimethyl-N^4-(1-methylpiperidin-4-yl)-N^2-(pyridin-2-ylmethyl)pyrimidine-2,4-diamine], for which the EC50 in series [1] (setting [2]) is 1300 nM.

As to `Cc1nc(NCc2ccccn2)nc(NC2CCN(C(=O)OC(C)(C)C)CC2)c1C` [Example 82, tert-butyl 4-({5,6-dimethyl-2-[(pyridin-2-ylmethyl)amino]pyrimidin-4-yl}amino)piperidine-1-carboxylate], the midpoint of the response in series [1] (setting [2]), the EC50, lay at 540 nM.

In the case of `Cc1nc(NCc2ccccn2)nc(NC2CCNCC2)c1C` [Example 83, 5,6-dimethyl-N^4-(piperidin-4-yl)-N^2-(pyridin-2-ylmethyl)pyrimidine-2,4-diamine], the EC50 in series [1] (setting [2]) came out at 33000 nM.

In the case of `Cc1nc(NCc2ccccn2)nc(Nc2c(C(C)C)cccc2C(C)C)c1C` [Example 84, N^4-(2,6-diisopropylphenyl)-5,6-dimethyl-N^2-(pyridin-2-ylmethyl)pyrimidine-2,4-diamine], in series [1] (setting [2]), the EC50 was determined as 16 nM.

Compound `Cc1nc(NCc2ccccn2)nc(NC2CCCC(O)C2)c1C` (stereo not drawn) [Example 85, 3-({5,6-dimethyl-2-[(pyridin-2-ylmethyl)amino]pyrimidin-4-yl}amino)cyclohexanol] gave an EC50 in series [1] (setting [2]) of 1380 nM.

Take `Cc1ccc(CNc2nc(C)c(C)c(NC3CCCCC3)n2)nc1` [Example 86, N^4-cyclohexyl-5,6-dimethyl-N^2-[(5-methylpyridin-2-yl)methyl]pyrimidine-2,4-diamine]: the response in series [1] (setting [2]) was half-maximal at 1500 nM (EC50).

In series [1] (setting [2]), `Cc1nc(NC(C)c2ccccn2)nc(NC2CCCCC2)c1C` (stereo not drawn) [Example 87, N^4-cyclohexyl-5,6-dimethyl-N^2-[1-(pyridin-2-yl)ethyl]pyrimidine-2,4-diamine] displayed an EC50 of over 32000 nM.

In series [1] (setting [2]), `Cc1nc(NCc2ccccn2)nc(Nc2ccc(F)cc2F)c1C` [Example 88, N^4-(2,4-difluorophenyl)-5,6-dimethyl-N^2-(pyridin-2-ylmethyl)pyrimidine-2,4-diamine] had an EC50 of 38 nM.

In turn, `CCc1c(C)nc(NCc2ccccn2)nc1Nc1ccc(F)cc1` [Example 89, 5-ethyl-N^4-(4-fluorophenyl)-6-methyl-N^2-(pyridin-2-ylmethyl)pyrimidine-2,4-diamine] displayed an EC50 in series [1] (setting [2]) of 480 nM.

Consider `CCc1ccnc(CNc2nc(C)c(C)c(NC3CCC(F)(F)CC3)n2)c1` [Example 90, N^4-(4,4-difluorocyclohexyl)-N^2-[(4-ethylpyridin-2-yl)methyl]-5,6-dimethylpyrimidine-2,4-diamine], for which a half-maximal response in series [1] (setting [2]) (EC50) required 510 nM.

Take `Cc1nc(NCc2ccccn2)nc(NCC2CCCO2)c1C` (stereo not drawn) [Example 91, 5,6-dimethyl-N^2-(pyridin-2-ylmethyl)-N^4-(tetrahydrofuran-2-ylmethyl)pyrimidine-2,4-diamine]: the EC50 in series [1] (setting [2]) turned out to be 2200 nM.

In series [1] (setting [2]), `Cc1nc(NCc2ccccn2)nc(NCC2CCCCC2)c1C` [Example 92, N^4-(cyclohexylmethyl)-5,6-dimethyl-N^2-(pyridin-2-ylmethyl)pyrimidine-2,4-diamine] yielded an EC50 of 1100 nM.

In turn, `Cc1nc(NCc2ccccn2)nc(Nc2cccnc2)c1C` [Example 93, 5,6-dimethyl-N^4-(pyridin-3-yl)-N^2-(pyridin-2-ylmethyl)pyrimidine-2,4-diamine] yielded an EC50 in series [1] (setting [2]) of 930 nM.

For `Cc1nc(NCc2ccccn2)nc(Nc2nncs2)c1C` [Example 94, 5,6-dimethyl-N^2-(pyridin-2-ylmethyl)-N^4-(1,3,4-thiadiazol-2-yl)pyrimidine-2,4-diamine], it took 2400 nM to reach a half-maximal effect in series [1] (setting [2]) (EC50).

With `Cc1nc(NCc2ccccn2)nc(Nc2ccon2)c1C` [Example 95, 5,6-dimethyl-N^4-(1,2-oxazol-3-yl)-N^2-(pyridin-2-ylmethyl)pyrimidine-2,4-diamine], it took 5300 nM to reach a half-maximal effect in series [1] (setting [2]) (EC50).

`Cc1cc(Nc2nc(NCc3ccccn3)nc(C)c2C)no1` [Example 96, 5,6-dimethyl-N^4-(5-methyl-1,2-oxazol-3-yl)-N^2-(pyridin-2-ylmethyl)pyrimidine-2,4-diamine] displayed an EC50 in series [1] (setting [2]) of 15000 nM.

For `Cc1nc(NCc2ccccn2)nc(NCc2ccc(F)cc2)c1C` [Example 97, N^4-(4-fluorobenzyl)-5,6-dimethyl-N^2-(pyridin-2-ylmethyl)pyrimidine-2,4-diamine], the EC50 in series [1] (setting [2]) is 140 nM.
